Tests used:
[1] = system: RANKL-induced osteoclast differentiation of RAW264.7 cells; experiment: Osteoclast differentiation inhibition experiment (RANKL-induced, TRAP staining); assay type: cell-based; conditions: for IC50: RAW264.7 cells, 100 ng/ml RANKL, 5 days, TRAP staining, osteoclasts with 3 or more nuclei counted; for Therapeutic index SI (CC50/IC50): selective inhibition constant = CC50 (RAW264.7 cytotoxicity) / IC50 (osteoclast differentiation)
Method: Example 33: Osteoclast Differentiation Inhibition Experiment
(§1) RAW264.7 cells were cultured in vitro using DMEM high glucose medium containing 10% fetal bovine serum at 37° C. under 5% CO2 for routine maintenance culture and passage.
(§2) S2. Compound Intervention
The logarithmic growth phase cells were collected and formulated into a cell suspension at a concentration of 2×10^4 cells/mL, and the cell suspension were added to a 96-well cell culture plate. After culturing in a carbon dioxide incubator for 24 hours, the culture medium was replaced with a medium containing 100 ng/ml RANKL and the compound at different concentrations to continue culturing for 5 days, while changing the medium containing the same RANKL concentration and compound concentration every 2 days. The osteoclasts were stained with the TRAP staining method and measured on day 5. Three wells were set for each concentration, and a control group without the compound treatment was set for comparison.
The differentiated osteoclasts were stained with TRAP kit, and the number of osteoclasts fused by 3 or more nuclei was counted.
(§3) S4. Processing of Results
The inhibition rate of each compound on RANKL-induced osteoclast differentiation was calculated according to the following equation: […]
An osteoclast differentiation inhibition curve of each compound was plotted with the osteoclast differentiation inhibition rate as the ordinate and the logarithm of the compound concentration as the abscissa. According to the osteoclast differentiation inhibition rate by each compound, the half maximal inhibitory concentration IC50 was calculated, i.e., the concentration of the compound that is required for 50% osteoclast differentiation inhibition.
(§4) In addition, a selective inhibition constant of each compound was calculated according to the equation: selective inhibition constant (SI)=CC50/IC50, in order to evaluate the administration safety of each compound.
Based on the value of the selective index SI=CC50/IC50, the anti-osteoporotic differentiation effect of the compound was evaluated according to the following criteria.

[2] = Cytotoxicity assay (MTT) on RAW264.7 cells; assay type: cell-based; conditions: mouse, RAW264.7 cell growth inhibition, MTT method
Method: Example 32: Cytotoxicity Assay of Compounds
as §1, §2
The logarithmic growth phase cells were collected and formulated into a cell suspension at a concentration of 1×10^5 cells/mL, and the cell suspension was added to a 96-well cell culture plate. After culturing in a carbon dioxide incubator for 24 hours, the culture medium was replaced with a medium containing the compound at different concentrations to continue culturing for 2 days, and the cytotoxicity was detected on day 3. The compound to be tested was prepared into solutions of different concentrations using DMSO. Three wells were set for each concentration, and a control group without the compound treatment was set for comparison. […]
as §3
The RAW264.7 cell growth inhibition rate by each compound was calculated according to the following equation: […]
A cell growth inhibition curve of each compound was plotted with the RAW264.7 cell growth inhibition rate as the ordinate and the logarithm of the compound concentration as the abscissa. According to the inhibition rate of each compound on the cells, the 50% cytotoxic concentration CC50 was calculated, i.e., the concentration of the compound that is required for 50% inhibition of cell growth.
as §4

Row | Compound | IC50 ([1]; Mus musculus, RAW264.7, 120 h) | Therapeutic index SI (CC50/IC50) [1] | CC50 at 2 days [2] | IC50 [1]
1 | CCOC(=O)c1sc(NC(=O)/C(=N/Nc2ccncc2C(=O)O)C(C)=O)nc1C [Compound 16] | 22.3 µM | 20 | 451 µM | 
2 | CC(=O)/C(=N\Nc1ccccc1C(=O)O)C(=O)Nc1ccccc1 [Compound 24] | 11.1 µM | 7 | 75.2 µM | 
3 | CCOC(=O)c1sc(NC(=O)/C(=N/Nc2cc(C)ccc2C(=O)O)C(C)=O)nc1C [Compound 8] | 3.85 µM | 15 | 57.2 µM | 
4 | CCOC(=O)c1sc(NC(=O)/C(=N/Nc2ccc(Cl)cc2C(=O)O)C(C)=O)nc1C [Compound 15] | 1.56 µM | 22 | 33.9 µM | 
5 | CCOC(=O)c1sc(NC(=O)/C(=N/Nc2c(C)cccc2C(=O)O)C(C)=O)nc1C [Compound 7] | 0.99 µM | 63 | 62.8 µM | 
6 | CC(=O)/C(=N\Nc1ccccc1C(=O)O)C(=O)NC1CCNCC1 [Compound 26] | 8.85 µM | 7 | 65.8 µM | 
7 | CCOC(=O)c1sc(NC(=O)/C(=N/Nc2ccccc2O)C(C)=O)nc1C [Compound 5] | 2.45 µM | 21 | 52.6 µM | 
8 | CCOC(=O)c1sc(NC(=O)/C(=N/Nc2ccc(F)cc2C(=O)O)C(C)=O)nc1C [Compound 10] | 0.4 µM | 308 | 123 µM | 
9 | CCOC(=O)c1sc(NC(=O)/C(=N/Nc2ccccc2C(=O)OC)C(C)=O)nc1C [Compound 4] | 1.26 µM | 65 | 82.1 µM | 
10 | CCOC(=O)c1sc(NC(=O)/C(=N/Nc2ccccc2C(=O)O)C(C)=O)nc1C [Compound 1] | 1.24 µM | 50 | 62.5 µM | 
11 | CCOC(=O)c1sc(NC(=O)/C(=N/Nc2c(C(=O)O)cccc2C(=O)O)C(C)=O)nc1C [Compound 18] | 0.46 µM | 271 | 125 µM | 
12 | CC(=O)/C(=N\Nc1ccccc1C(=O)O)C(=O)Nc1cccc(O)n1 [Compound 30] | 15.4 µM | 13 | 198 µM | 
13 | CCOC(=O)c1sc(NC(=O)/C(=N/Nc2cc(C(=O)O)ccc2C(=O)O)C(C)=O)nc1C [Compound 19] | 10.2 µM | 20 | 202 µM | 
14 | CCOC(=O)c1sc(NC(=O)/C(=N/Nc2ccc([N+](=O)[O-])cc2C(=O)O)C(C)=O)nc1C [Compound 14] | 0.89 µM | 47 | 41.9 µM | 
15 | CC(=O)/C(=N\Nc1ccccc1C(=O)O)C(=O)N1CCOCC1 [Compound 28] | 0.99 µM | 77 | 76.2 µM | 
16 | CC(=O)/C(=N\Nc1ccccc1C(=O)O)C(=O)N1CCc2ccccc2C1 [Compound 27] | 9.03 µM | 15 | 135 µM | 
17 | CCOC(=O)c1sc(NC(=O)/C(=N/Nc2ccc(C)cc2C(=O)O)C(C)=O)nc1C [Compound 9] | 4.63 µM | 19 | 89 µM | 
18 | CCOC(=O)c1sc(NC(=O)/C(=N/Nc2ccccc2CO)C(C)=O)nc1C [Compound 6] | 12.1 µM | 6 | 77.9 µM | 
19 | CC(=O)/C(=N\Nc1ccccc1C(=O)O)C(=O)Nc1ccccn1 [Compound 25] | 0.36 µM | 301 | 81.2 µM | 0.27 µM
20 | CCOC(=O)c1sc(NC(=O)/C(=N/Nc2cc(F)ccc2C(=O)O)C(C)=O)nc1C [Compound 11] | 1.02 µM | 56 | 57.2 µM | 
21 | CCOC(=O)c1sc(NC(=O)/C(=N/Nc2c(C#N)cccc2C(=O)O)C(C)=O)nc1C [Compound 12] |  | 1701 | 391 µM | 0.23 µM
22 | CC(=O)/C(=N\Nc1ccccc1C(=O)O)C(=O)Nc1ccc(C#N)cn1 [Compound 29] | 3.21 µM | 37 | 119 µM | 
23 | CCOC(=O)c1sc(NC(=O)/C(=N/Nc2cccc(C(=O)O)c2)C(C)=O)nc1C [Compound 3] |  | 1625 | 81.2 µM | 0.05 µM
24 | CC(=O)/C(=N\Nc1ccccc1C(=O)O)C(=O)Nc1nccs1 [Compound 22] | 3.66 µM | 41 | 149 µM | 
25 | CC(=O)/C(=N\Nc1ccccc1C(=O)O)C(=O)Nc1nc2ccccc2s1 [Compound 23] | 0.78 µM | 53 | 41.1 µM | 
26 | CCOC(=O)c1sc(NC(=O)/C(=N/Nc2ccc(N)cc2C(=O)O)C(C)=O)nc1C [Compound 20] | 1.23 µM | 40 | 49.1 µM | 
27 | CCOC(=O)c1sc(NC(=O)/C(=N/Nc2ccc(C(=O)O)cc2)C(C)=O)nc1C [Compound 2] | 0.73 µM | 95 | 69.2 µM | 
28 | CC(=O)/C(=N\Nc1ccccc1C(=O)O)C(=O)Nc1nc(C)cs1 [Compound 21] | 2.58 µM | 85 | 220 µM | 
29 | CCOC(=O)c1sc(NC(=O)/C(=N/Nc2cc(C#N)ccc2C(=O)O)C(C)=O)nc1C [Compound 13] | 0.88 µM | 71 | 62.3 µM | 
